Experimental findings from patent publication US20240246995A1, “PYRIMIDINONE DERIVATIVE AND PREPARATION METHOD THEREFOR, PHARMACEUTICAL COMPOSITION, AND USE” (SHANGHAI SIMR BIOTECHNOLOGY CO., LTD., priority 2021, published 2024) are described below.

pIC50: −log10 of the molar value.

The assay has as its target T1, Lipoprotein-Related Phospholipase A2 (Lp-PLA2) in Human Plasma (Homo sapiens, UniProt Q13093).
T1 construct: 40 μL of equally-divided and thawed mixed human plasma is pre-added; from tissue; host or cells: mixed (pooled) human plasma
T1 sequence (Q13093 22-441): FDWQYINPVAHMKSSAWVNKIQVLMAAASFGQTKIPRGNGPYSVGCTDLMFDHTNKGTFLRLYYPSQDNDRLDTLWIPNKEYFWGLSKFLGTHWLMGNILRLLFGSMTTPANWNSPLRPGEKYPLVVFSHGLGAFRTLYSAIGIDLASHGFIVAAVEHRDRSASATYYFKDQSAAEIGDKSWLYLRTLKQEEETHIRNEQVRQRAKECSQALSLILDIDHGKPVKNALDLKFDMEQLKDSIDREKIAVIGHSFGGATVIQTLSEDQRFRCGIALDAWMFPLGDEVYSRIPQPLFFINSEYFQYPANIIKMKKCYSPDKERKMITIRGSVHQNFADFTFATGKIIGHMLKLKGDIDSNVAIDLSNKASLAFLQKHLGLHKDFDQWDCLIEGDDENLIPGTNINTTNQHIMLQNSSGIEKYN
Kind of assay: Determination of Lp-PLA2 in human plasma (Thio-PAF assay). Format: biochemical. The settings on record: mixed human plasma, 2-thio-PAF substrate, 30 minutes pre-incubation at room temperature. From the text:
Determination of Lipoprotein-Related Phospholipase A2 (Lp-PLA2) in Human Plasma.
Human plasma determination utilizes a thioester analogue of phosphatidylcholine (PAF), where hydrolysis leads to the formation of phospholipids containing free thiol groups. The amount of the thiol groups is continuously determined by reacting with CPM (7-diethylamino-3-(4′-maleimidophenyl)-4-methylcoumarin), which is maleimide with increased fluorescence after Michael addition of the thiol groups. This determination can detect the activity of Lp-PLA2 in human plasma, for example, determined by the specific inhibition of the Lp-PLA2 inhibitors.
Thio-PAF determination, as quenched 75 μL determination, is carried out. A compound source plate is prepared by preparing a 1:3 (volume) series of diluents of each compound in pure DMSO on a 96-well microplate. A Rainin multi-channel pipette is used to transfer 3 μL of a compound on the compound source plate into a 96-well microplate where 57 μL of a determination buffer is pre-added, and the compound on the source plate is diluted by 20 folds. The above determination buffer contains 50 mM HEPES (pH 7.4), 150 mM NaCl, and 1 mM CHAPS. A Rainin multi-channel pipette is used to transfer 1 μL of the compound subjected to 20-fold dilution into a 96-well Greiner 655076 (black) microplate where 40 μL of equally-divided and thawed mixed human plasma is pre-added. The plate is oscillated for 20 seconds in an Elisa plate oscillator to be mixed evenly. After 30 minutes of pre-incubation at the room temperature, a Rainin multi-channel pipette is used to add 10 μL of a substrate solution to a 96-well Greiner 655076 (black) microplate, and the substrate solution contains 2.5 mM 2-thio-PAF [from ethanol mother liquor], 32 μM CPM [from DMSO mother liquor] and 3.2 mM NEM (N-ethylmaleimide) [newly prepared in DMSO for each experiment] in a determination buffer composed of 50 mM HEPES (pH 7.4), 150 mM NaCl, and 1 mM CHAPS. After 2 minutes, 25 μL of a 5% trifluoroacetic acid (TFA) aqueous solution is used for quenching the reaction. The plate is centrifuged at 2000 rpm for 1 minute. A Biotek Synergy H1 (H1MF) Elisa reader is used to read the plate at ex:380/em:485. GraphPad Prism 6.0 and Excel are used for IC50 data, curve, and QC analysis.
As for `Cc1cc(Oc2c(F)cc(COc3cc4n(c(=O)n3)CCC3(C)CCCN43)cc2F)ccn1` (stereo not drawn) [Example 35, 2-((3,5-fluoro-4-((2-methylpyrid-4-yl)oxy)benzyl)oxy)-7a-methyl-6,7,7a, 8,9,10-hexahydro-4H-pyrimidinyl [1,6-a]pyrrolo[1,2-c] pyrimidine-4-one], the negative logarithm of the IC50 (pIC50) (usually the negative decadic logarithm of the IC50, by convention in mol/L) is 7.63.
Next, `CC12CCCN1c1cc(OCc3cc(F)c(Oc4ccnc(Cl)c4)c(F)c3)nc(=O)n1CC2` (stereo not drawn) [Example 36]: 7.76; `CC12CCCN1c1cc(OCc3ccc(F)c(C#N)c3)nc(=O)n1CC2` (stereo not drawn) [Example 37]: 7.47.
Next, `CCC12CCCN1c1cc(OCc3cc(F)c(Oc4ccnc(C(F)(F)F)c4)c(F)c3)nc(=O)n1CC2` (stereo not drawn) [Example 38, 2-((3,5-difluoro-4-((2-(trifluoromethyl)pyrid-4-yl)oxy)benzyl)oxy)-7a-ethyl-6,7,7a,8,9,10-hexahydro-4H-pyrimido[1,6-a] pyrrolo[1,2-c] pyrimidine-4-one]: 8.09; `CCC12CCCN1c1cc(OCc3cc(F)c(Oc4ccc(Cl)c(C(F)(F)F)c4)c(F)c3)nc(=O)n1CC2` (stereo not drawn) [Example 39, 2-((4-(4-chloro-3-(trifluoromethyl)phenoxy)-3,5-difluorobenzyl)oxy)-7a-ethyl-6,7,7a,8,9, 10-hexahydro-4H-pyrimidinyl[1,6-a] pyrrolo[1,2-c] pyrimidine-4-one]: 7.48; `CCC12CCCN1c1cc(OCc3ccc(Oc4cccc(C(F)(F)F)c4)c(C#N)c3)nc(=O)n1CC2` (stereo not drawn) [Example 40]: 7.97.
On to `CCC12CCCN1c1cc(OCCc3ccc(Oc4ccc(Cl)c(C(F)(F)F)c4)cc3)nc(=O)n1CC2` (stereo not drawn) [Example 41, 2-(4-(4-chloro-3-(trifluoromethyl)phenoxy)phenyl-ethoxy)-7a-ethyl-6,7,7a, 8,9,10-hexahydro-4H-pyrimidine [1,6-a]pyrrole[1,2-c]pyrimidine-4-one], for which the pIC50 was 6.63.
Next, `O=c1nc(OCc2ccc(Oc3ccnc(C(F)(F)F)c3)c(F)c2)cc2n1CCC1CCCCN21` (stereo not drawn) [Example 42, 2-((3-fluoro-4-((2-(trifluoromethyl)pyrid-4-yl)oxy)benzyl)oxy)-7,7a,8,9,10,11-hexahydro-4H,6H-pyridine[1,2-c]pyrimidine[1,6-a]pyrimidine-4-one]: 7.61; `O=c1nc(OCc2cc(F)c(Oc3ccc(Cl)c(C(F)(F)F)c3)c(F)c2)cc2n1CCC1CCCCN21` (stereo not drawn) [Example 43, 2-((4-(4-chloro-3-(trifluoromethyl)phenoxy)-3,5-di-fluorobenzyl)oxy)-7,7a,8,9,10,11-hexahydro-4H,6H-pyri-dyl[1,2-c]pyrimido [1,6-a]pyrimidine-4-one]: 7.92; `N#Cc1cc(COc2cc3n(c(=O)n2)CCC2CCCCN32)ccc1Oc1cccc(C(F)(F)F)c1` (stereo not drawn) [Example 44]: 7.83.
With `O=c1nc(OCc2cc(F)c(Oc3cnc(C(F)(F)F)nc3)c(F)c2)cc2n1CCC1CCCCN21` (stereo not drawn) [Example 45, 2-((3,5-difluoro-4-((2-(trifluoromethyl)pyrimidin-5-yl)oxy)benzyl)oxy)-7,7a,8,9,10,11-hexahydro-4H,6H-pyridino[1,2-c]pyri-mido[1,6-a] pyrimidine-4-one] the figure was 7.18; with `O=c1nc(OCCc2ccc(Oc3ccc(Cl)c(C(F)(F)F)c3)cc2)cc2n1CCC1CCCCN21` (stereo not drawn) [Example 46, 2-(4-(4-chloro-3-(trifluoromethyl)phenoxy)phenylethoxy)-7,7a,8,9,10,11-hexahydro-4H, 6H-pyridyl[1,2-c] pyrimidinyl[1,6-a] pyrimidine-4-one], 6.66.
Next, `O=c1nc(OCc2ccc(Oc3ccnc(C(F)(F)F)c3)c(F)c2)cc2n1CC[C@@H]1CCCCN21` [Example 47, (S)-2-((3-fluoro-4-((2-(trifluoromethyl)pyrid-4-yl)oxy)benzyl)oxy)-7,7a, 8,9,10,11-hexahydro-4H,6H-pyridino[1,2-c] pyrimidine[1,6-a] pyrimidine-4-one]: 7.84; `COc1c(OCc2ccc(Oc3ccnc(C(F)(F)F)c3)c(F)c2)nc(=O)n2c1N1CCCC[C@H]1CC2` [Example 48]: 8.29; `CC12CCCCN1c1cc(OCc3ccc(Oc4ccnc(C(F)(F)F)c4)c(F)c3)nc(=O)n1CC2` (stereo not drawn) [Example 49, 2-((3-fluoro-4-((2-(trifluoromethyl)pyrid-4-yl)oxy)benzyl)oxy)-7a-methyl-7,7a,8,9,10,11-hexahydro-4H,6H-pyridino[1,2-c] pyrimidine[1,6-a] pyrimidine-4-one]: 8.80.
With `Cc1cc(Oc2c(F)cc(COc3cc4n(c(=O)n3)CCC3(C)CCCCN43)cc2F)ccn1` (stereo not drawn) [Example 50, 2-((3,5-difluoro-4-((2-methylpyrid-4-yl)oxy)benzyl)oxy)-7a-methyl-7,7a,8,9,10,11-hexahydro-4H,6H-pyridino [1,2-c]pyrimidine [1,6-a]pyrimidine-4-one], the pIC50 is 7.89.
Next, `O=c1nc(OCc2cc(F)c(Oc3ccnc(C(F)(F)F)c3)c(F)c2)cc2n1CCC1COCCN21` (stereo not drawn) [Example 51, 2-((3,5-difluoro-4-((2-(trifluoromethyl)pyrid-4-yl)oxy)benzyl)oxy)-6,7,7a,8,10,11-hexahydro-4H-pyrimidinyl [6′,1′:2,3]pyrimidine [6,1-c][1,4] oxazin-4-one]: 8.18.
With `O=c1nc(OCc2cc(F)c(Oc3ccc(Cl)c(C(F)(F)F)c3)c(F)c2)cc2n1CCC1COCCN21` (stereo not drawn) [Example 52, 2-((4-(4-chloro-3-(trifluoromethyl)phenoxy)-3,5-di-fluorobenzyl)oxy)-6,7,7a,8,10,11-hexahydro-4H-pyrimidinyl [6′,1′:2,3] pyrimido[6,1-c][1,4] oxazin-4-one] the figure was 7.97; with `N#Cc1cc(COc2cc3n(c(=O)n2)CCC2COCCN32)ccc1Oc1cccc(C(F)(F)F)c1` (stereo not drawn) [Example 53], 8.14.
`O=c1nc(OCc2cc(F)c(Oc3ccnc(OC(F)(F)F)c3)c(F)c2)cc2n1CCC1COCCN21` (stereo not drawn) [Example 54, 2-((3,5-difluoro-4-((2-(trifluoro-methoxy)pyrid-4-yl)oxy)benzyl)oxy)-6,7,7a,8,10,11-hexahydro-4H-pyrimidinyl [6′,1′:2,3] pyrimidine [6,1-c][1,4] oxazin-4-one]: the pIC50 is 8.28.
With `O=c1nc(OCc2cc(F)c(Oc3cnc(C(F)(F)F)nc3)c(F)c2)cc2n1CCC1COCCN21` (stereo not drawn) [Example 55] the figure was 7.86; with `O=c1nc(OCCc2ccc(Oc3ccc(Cl)c(C(F)(F)F)c3)cc2)cc2n1CCC1COCCN21` (stereo not drawn) [Example 56, 2-(4-(4-chloro-3-(trifluoromethyl)phenoxy)phenyl-ethoxy)-6,7,7a,8,10,11-hexahydro-4H-pyrimidinyl [6′,1′:2,3] pyrimidinyl[6,1-c] [1,4]oxazin-4-one], 7.70; with `O=c1nc(OCc2ccc(Oc3ccnc(C(F)(F)F)c3)c(F)c2)c(F)c2n1CC[C@]13CO[C@H](CN21)C3` [Example 57, (7aS,10S)-1-fluoro-2-((3-fluoro-4-((2-(trifluoromethyl)pyrid-4-yl)oxy)benzyl)oxy)-6,7,10, 11-tetrahydro-4H, 8H-7a,10-methyl-pyrimidinyl[6′,1′: 2,3]pyrimidinyl [6,1-c][1,4]oxazin-4-one], 8.48.
As for `O=c1nc(OCc2ccc(Oc3ccnc(C(F)(F)F)c3)c(F)c2)c(Cl)c2n1CC[C@]13CO[C@H](CN21)C3` [Example 58, (7aS,10S)-1-chloro-2-((3-fluoro-4-((2-(trifluoromethyl)pyrid-4-yl)oxy)benzyl)oxy)-6,7,10, 11-tetrahydro-4H, 8H-7a,10-methyl-pyrimidinyl[6′,1′: 2,3]pyrimidinyl [6,1-c][1,4]oxazin-4-one], the negative logarithm of the IC50 (pIC50) was 8.47.
